Laboratory results reported in US11160886B2, “Method for labeling of sensitive and thermosensitive targeting biomolecules with technetium based compounds” (BRACCO IMAGING SPA, priority 2016, dated 2021).

How the values were obtained:
[1] = Sera and homogenates stability; type: in vitro ADME, human and rat; conditions: human and rat sera, 37° C., 3 h
Protocol: Sera and Homogenates Stability.
The in vitro stability of complex 1, complex 2, complex 9 and complex 11 was evaluated by monitoring the RCP at different time points using the following procedures. In a propylene test tube 50 μl of purified [^99mTc(N)(PNP3OH)]-compound were added to: a) 450 μl of human serum, b) 450 μl of rat serum, c) 450 μl of homogenate of rat liver and d) 450 μl of homogenate of rat kidneys. The resulting mixture was incubated at 37° C. for 4 h.
The sample was loaded onto a cartridge, preconditioned with MeOH (1 ml) and equilibrated with water (1 ml), and rinsed with MeOH 5% (3 ml). The activity was eluted with a mixture of EtOH/saline 60% (1 ml). Each fraction was collected and the activity measured using a counter (Cobra II, Packard) to determinate the elution profile. 80% of the loaded activity was collected in the elution fraction. An aliquot of this solution (100 μl) was analyzed by HPLC to assess the degradation of the ^99mTc(N)-complexes (FIG. 11).

[2] = Stability in the reaction solution as function of pH (FIG. 5); type: physicochemical
Protocol: The variation of (%)RCY of complex 1 and complex 2 over the time (30 min vs 18 h), at different conditions, is shown in FIG. 5. […] Alternatively, free PNP3OH was directly used.

[3] = Biodistribution in healthy rats; type: in vivo, Sprague-Dawley rats; conditions: for Pharmacokinetic profile: blood clearance: healthy animals, within the first 60 min p.i.; for Biodistribution: Blood / Biodistribution: Brain / Biodistribution: Heart / Biodistribution: Intestine / Biodistribution: Kidneys / Biodistribution: Liver / Biodistribution: Lungs / Biodistribution: Muscle / Biodistribution: Spleen / Biodistribution: Stomach / Biodistribution: Urine: healthy rats
Protocol: Before injection, ^99mTc complexes were purified using a reversed-phase C18 Sep-Pack cartridge to remove the excess of unlabeled ligands. After purification, the activity recovered was further diluted with PBS to obtain a final solution that is <0.5% in EtOH content. The RCP and the stability of the purified complexes were evaluated prior to in vivo administration and for the succeeding 18 h.
Biodistribution in healthy rats. Biodistribution in healthy rats was performed on complex 1, complex 2 and complex 9 in order to evaluate their pharmacokinetic profile and elimination pathways as well as their resistance to in vivo metabolism. Female Sprague-Dawley rats weighing 180-200 g were anesthetized with an intramuscular injection of a mixture of Zoletil (40 mg/kg) and xylazine (2 mg/kg). A jugular vein was surgically exposed and 100 μl (300-370 kBq) of the solution containing the selected [^99mTc(N)(PNP3OH)]-compound was injected. The rats (n=3) were scarified by cervical dislocation at different times after injection. The blood was withdrawn from the heart with a syringe immediately after death and quantified. Organs were excised, rinsed in saline, weighed, and the activity was counted in a Nal well counter.

[4] = Challenge reactions (transchelation) with excess Cys, GSH or EDTA, RCP by HPLC; type: physicochemical; conditions: for % RCP after incubation with excess Cys: 37° C.
Protocol: The transchelation studies were performed for some compounds monitoring by HPLC the radiochemical purity (RCP) of the complexes in presence of an excess of exchanging ligands over the time. The experiments were performed in triplicate.
Challenge experiments were carried out on the purified [^99mTc(N)(PNP3OH)]-labeled small size compounds (complex 1, complex 2, complex 9 and complex 10) using an excess of glutathione (GSH) or Cys. An aliquot (50 μl) of an aqueous stock solution of cysteine hydrochloride (10 mM; 1 mM) was added to a propylene test tube containing PB (250 μl, 0.2 M; pH 7.4), water (100 μl) and the selected [^99mTc(N)(PNP3OH)]-compound (100 μl). The mixture was vortexed and incubated at 37° C. for 24 h. A control reaction containing an equal volume of water, instead of cysteine hydrochloride, was studied in parallel. At 30 min, 1, 3 and 24 h, aliquots of the reaction mixture were withdrawn and analyzed by HPLC chromatography. A similar procedure was applied using GSH (50 μl, 10 mM) as challenge ligand.
For [^99mTc(N)(PNP3OH)(Cys-Gly-Lys-Gly-ApoMb)]^+ (“Cys-Gly-Lys-Gly” disclosed as SEQ ID NO: 1) additional experiments were conducted using EDTA (50 μl, 10 mM) as exchanging ligand.

[5] = Isomeric conversion over 24 h at 37° C.; type: physicochemical
Protocol: Before the experiments for both complex 11 and complex 9, the two isomers were isolated by HPLC and their isomeric conversion was assessed over 24 h at 37° C.
In addition, a faster b vs a change was noticed. Therefore, for the radiolabeled peptide the mixture of the two isomeric forms in ratio 70/30 was directly utilized for receptor affinity studies.

[6] = biological target: avidin (Gallus gallus, UniProt P02701); experiment: Avidin binding; conditions: 1 and 24 h at 37° C.
Protocol: Avidin Binding. The preliminary evaluation of the binding characteristics of the two separate isomers of complex 11 to avidin was assessed according to the previously reported methods and compared with those of the corresponding already published (Bolzati, C.; Caporale, A.; Agostini, S.; Carta, D.; Cavazza-Ceccato, M.; Refosco, F.; Tisato, F.; Schievano, E.; Bandoli, G. Avidin-biotin system: a small library of cysteine biotinylated derivatives designed for the [^99mTc(N)(PNp)]^2+ metal fragment. Nucl. Med. Biol (2006), 34, 511-522).
The percentage of radiolabeled biotin bound, evaluated after 1 and 24 h of incubation along the saturation curves, is reported in FIG. 9.

avidin, sequence (P02701 25-152, species assumed): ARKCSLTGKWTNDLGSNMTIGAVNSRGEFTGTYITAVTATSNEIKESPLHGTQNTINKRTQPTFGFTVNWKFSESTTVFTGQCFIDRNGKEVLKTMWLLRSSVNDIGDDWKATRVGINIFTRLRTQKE

## CC(=O)NC1C[S][99Tc](#[N])[O]C1=O.COCCN(CCP(CO)CO)CCP(CO)CO [Complex 1, [^99mTc(N)(PNP3OH)(CysNAc)]]
[1]
  Sera stability: high sera stability
[2]; pH 7.4
  Stability in the reaction solution: stable within 18 h
[2]; pH 9
  Stability in the reaction solution: a progressive degradation was observed
[3]
  Pharmacokinetic profile: blood clearance: rapid blood clearance
[3]; 2 min
  Biodistribution: Blood: 1.68 ± 0.02 % IA/g
  Biodistribution: Brain: 0.10 ± 0.01 % IA/g
  Biodistribution: Heart: 0.54 ± 0.09 % IA/g
  Biodistribution: Intestine: 0.70 ± 0.02 % IA/g
  Biodistribution: Kidneys: 4.73 ± 0.37 % IA/g
  Biodistribution: Liver: 1.73 ± 0.02 % IA/g
  Biodistribution: Lungs: 1.11 ± 0.22 % IA/g
  Biodistribution: Muscle: 0.32 ± 0.02 % IA/g
  Biodistribution: Spleen: 0.40 ± 0.07 % IA/g
  Biodistribution: Stomach: 0.39 ± 0.05 % IA/g
[3]; 10 min
  Biodistribution: Blood: 0.96 ± 0.03 % IA/g
  Biodistribution: Brain: 0.05 ± 0.01 % IA/g
  Biodistribution: Heart: 0.27 ± 0.01 % IA/g
  Biodistribution: Intestine: 2.85 ± 0.67 % IA/g
  Biodistribution: Kidneys: 4.07 ± 0.67 % IA/g
  Biodistribution: Liver: 2.27 ± 0.01 % IA/g
  Biodistribution: Lungs: 0.68 ± 0.03 % IA/g
  Biodistribution: Muscle: 0.14 ± 0.01 % IA/g
  Biodistribution: Spleen: 0.26 ± 0.00 % IA/g
  Biodistribution: Stomach: 0.41 ± 0.09 % IA/g
  Biodistribution: Urine: 31.28 ± 4.07 % IA/g
[3]; 30 min
  Biodistribution: Blood: 0.43 ± 0.09 % IA/g
  Biodistribution: Brain: 0.04 ± 0.01 % IA/g
  Biodistribution: Heart: 0.17 ± 0.07 % IA/g
  Biodistribution: Intestine: 5.46 ± 3.28 % IA/g
  Biodistribution: Kidneys: 2.47 ± 0.04 % IA/g
  Biodistribution: Liver: 1.28 ± 0.03 % IA/g
  Biodistribution: Lungs: 0.38 ± 0.15 % IA/g
  Biodistribution: Muscle: 0.11 ± 0.00 % IA/g
  Biodistribution: Spleen: 0.10 ± 0.01 % IA/g
  Biodistribution: Stomach: 0.35 ± 0.02 % IA/g
[3]; 60 min
  Biodistribution: Blood: 0.11 ± 0.00 % IA/g
  Biodistribution: Brain: 0.01 ± 0.00 % IA/g
  Biodistribution: Heart: 0.06 ± 0.01 % IA/g
  Biodistribution: Intestine: 10.07 ± 0.26 % IA/g
  Biodistribution: Kidneys: 1.15 ± 0.12 % IA/g
  Biodistribution: Liver: 0.99 ± 0.13 % IA/g
  Biodistribution: Lungs: 0.14 ± 0.01 % IA/g
  Biodistribution: Muscle: 0.08 ± 0.03 % IA/g
  Biodistribution: Spleen: 0.10 ± 0.01 % IA/g
  Biodistribution: Stomach: 0.24 ± 0.12 % IA/g
  Biodistribution: Urine: 58.89 ± 2.27 % IA/g
[3]; 120 min
  Biodistribution: Blood: 0.06 ± 0.01 % IA/g
  Biodistribution: Brain: 0.01 ± 0.00 % IA/g
  Biodistribution: Heart: 0.02 ± 0.00 % IA/g
  Biodistribution: Intestine: 0.57 ± 0.05 % IA/g
  Biodistribution: Kidneys: 0.77 ± 0.26 % IA/g
  Biodistribution: Liver: 0.54 ± 0.05 % IA/g
  Biodistribution: Lungs: 0.10 ± 0.01 % IA/g
  Biodistribution: Muscle: 0.02 ± 0.00 % IA/g
  Biodistribution: Spleen: 0.09 ± 0.01 % IA/g
  Biodistribution: Stomach: 0.25 ± 0.06 % IA/g
  Biodistribution: Urine: 55.74 ± 14.87 % IA/g

## CCOC(=O)C(N)C[S][99Tc+]#[N].COCCN(CCP(CO)CO)CCP(CO)CO [Complex 2, [^99mTc(N)(PNP3OH)(CysOEt)]^+]
[4]; Cys 10 mM, 3 h
  % RCP after incubation with excess Cys: 65.93%
[4]; Cys 10 mM, 24 h
  % RCP after incubation with excess Cys: 23.32%
[4]; Cys 10 mM, versus complex 1 and complex 11
  Stability toward Cys transchelation relative to neutral complexes: higher stability toward Cys transchelation
[1]
  Sera stability: high sera stability
[2]; pH 7.4
  Stability in the reaction solution: stable within 18 h
[2]; pH 9
  Stability in the reaction solution: a progressive degradation was observed
[3]
  Pharmacokinetic profile: blood clearance: rapid blood clearance
[3]; 2 min
  Biodistribution: Blood: 0.99 ± 0.18 % IA/g
  Biodistribution: Brain: 0.05 ± 0.00 % IA/g
  Biodistribution: Heart: 0.41 ± 0.07 % IA/g
  Biodistribution: Intestine: 0.39 ± 0.09 % IA/g
  Biodistribution: Kidneys: 5.38 ± 0.22 % IA/g
  Biodistribution: Liver: 0.99 ± 0.28 % IA/g
  Biodistribution: Lungs: 0.87 ± 0.17 % IA/g
  Biodistribution: Muscle: 0.19 ± 0.07 % IA/g
  Biodistribution: Spleen: 0.23 ± 0.01 % IA/g
  Biodistribution: Stomach: 0.49 ± 0.05 % IA/g
  Biodistribution: Urine: 16.32 ± 0.00 % IA/g
[3]; 10 min
  Biodistribution: Blood: 0.62 ± 0.11 % IA/g
  Biodistribution: Brain: 0.07 ± 0.01 % IA/g
  Biodistribution: Heart: 0.26 ± 0.01 % IA/g
  Biodistribution: Intestine: 1.35 ± 0.19 % IA/g
  Biodistribution: Kidneys: 6.20 ± 0.51 % IA/g
  Biodistribution: Liver: 1.56 ± 0.06 % IA/g
  Biodistribution: Lungs: 0.50 ± 0.04 % IA/g
  Biodistribution: Muscle: 0.17 ± 0.04 % IA/g
  Biodistribution: Spleen: 0.17 ± 0.00 % IA/g
  Biodistribution: Stomach: 0.44 ± 0.08 % IA/g
  Biodistribution: Urine: 25.65 ± 16.29 % IA/g
[3]; 30 min
  Biodistribution: Blood: 0.62 ± 0.06 % IA/g
  Biodistribution: Brain: 0.05 ± 0.03 % IA/g
  Biodistribution: Heart: 0.23 ± 0.02 % IA/g
  Biodistribution: Intestine: 1.26 ± 0.42 % IA/g
  Biodistribution: Kidneys: 6.43 ± 2.44 % IA/g
  Biodistribution: Liver: 1.85 ± 0.13 % IA/g
  Biodistribution: Lungs: 0.43 ± 0.00 % IA/g
  Biodistribution: Muscle: 0.21 ± 0.01 % IA/g
  Biodistribution: Spleen: 0.15 ± 0.00 % IA/g
  Biodistribution: Stomach: 0.32 ± 0.02 % IA/g
  Biodistribution: Urine: 17.06 ± 0.00 % IA/g
[3]; 60 min
  Biodistribution: Blood: 0.24 ± 0.06 % IA/g
  Biodistribution: Brain: 0.02 ± 0.01 % IA/g
  Biodistribution: Heart: 0.09 ± 0.03 % IA/g
  Biodistribution: Intestine: 2.92 ± 0.26 % IA/g
  Biodistribution: Kidneys: 2.63 ± 1.43 % IA/g
  Biodistribution: Liver: 1.83 ± 0.05 % IA/g
  Biodistribution: Lungs: 0.19 ± 0.05 % IA/g
  Biodistribution: Muscle: 0.07 ± 0.04 % IA/g
  Biodistribution: Spleen: 0.11 ± 0.05 % IA/g
  Biodistribution: Stomach: 0.20 ± 0.12 % IA/g
  Biodistribution: Urine: 40.14 ± 0.00 % IA/g
[3]; 120 min
  Biodistribution: Blood: 0.09 ± 0.09 % IA/g
  Biodistribution: Brain: 0.01 ± 0.01 % IA/g
  Biodistribution: Heart: 0.06 ± 0.06 % IA/g
  Biodistribution: Intestine: 6.23 ± 0.35 % IA/g
  Biodistribution: Kidneys: 1.67 ± 1.04 % IA/g
  Biodistribution: Liver: 0.29 ± 0.77 % IA/g
  Biodistribution: Lungs: 0.15 ± 0.14 % IA/g
  Biodistribution: Muscle: 0.04 ± 0.04 % IA/g
  Biodistribution: Spleen: 0.07 ± 0.04 % IA/g
  Biodistribution: Stomach: 0.31 ± 0.16 % IA/g
  Biodistribution: Urine: 20.10 ± 6.28 % IA/g

## [^99mTc(N)(PNP3OH)(Biot-Abu-Cys)] [Complex 11]
[5]
  Isomeric conversion a vs b: No variation of a vs b and vice versa
[6]
  Recognition by molecular target (avidin binding, FIG. 9): recognized by the corresponding molecular target

## [^99mTc(N)(PNP3OH)(Cys-Gly-Lys-Gly-ApoMb)]^+
[4]; 10 mM
  Stability in challenge with excess of Cys, GSH and EDTA: do not affect the stability
